Measurements: patent US9328386B2, “Markers for susceptibility to an inhibitor of an Src-family kinase” (Evotec (München) GmbH, priority 2011, dated 2016)
Where two headings read alike, the source gives them in different places.

Tests used:
[1] = system: HCC1937 breast cancer cell line; conditions: dasatinib, cited from earlier work
[2] = system: H1568 NSCLC cell line; experiment: Cellular growth inhibition (CellTiter Glo viability assay); assay type: cell-based; conditions: Homo sapiens, NCI-H1568, 96 h; read-out: GI50 this paper
[3] = system: H2887 NSCLC cell line; conditions: dasatinib, cited from earlier work
[4] = system: HCC4006 NSCLC cell line; conditions: dasatinib, cited from earlier work
[5] = system: MCF7 breast cancer cell line; experiment: Cellular growth inhibition (CellTiter Glo viability assay); assay type: cell-based; conditions: Homo sapiens, MCF7, 96 h; read-out: GI50 this paper
[6] = system: H1666 NSCLC cell line; conditions: dasatinib, cited from earlier work
[7] = system: HCC1359 NSCLC cell line; conditions: dasatinib, cited from earlier work
[8] = system: H460 NSCLC cell line; conditions: dasatinib, cited from earlier work
[9] = system: LouNH91 NSCLC cell line; conditions: dasatinib, cited from earlier work
[10] = system: H647 NSCLC cell line; conditions: dasatinib, cited from earlier work
[11] = system: HCC1937 breast cancer cell line; experiment: Cellular growth inhibition (CellTiter Glo viability assay); assay type: cell-based; conditions: Homo sapiens, HCC1937, 96 h; read-out: GI50 this paper
[12] = system: HCC1359 NSCLC cell line; experiment: as above; assay type: cell-based; conditions: Homo sapiens, 96 h; read-out: GI50 this paper
[13] = system: LCLC103H NSCLC cell line; conditions: dasatinib, cited from earlier work
[14] = system: MCF7 breast cancer cell line; conditions: dasatinib, Huang et al. 2007, read-out: GI50 literature; cited from earlier work
[15] = system: H1568 NSCLC cell line; conditions: dasatinib, cited from earlier work
[16] = system: H322 NSCLC cell line; conditions: dasatinib, cited from earlier work
[17] = system: H2030 NSCLC cell line; conditions: dasatinib, cited from earlier work
[18] = system: HOP62 NSCLC cell line; conditions: dasatinib, cited from earlier work
[19] = system: BT-20 breast cancer cell line; experiment: Cellular growth inhibition (CellTiter Glo viability assay); assay type: cell-based; conditions: Homo sapiens, BT-20, 96 h; read-out: GI50 this paper
[20] = system: H2009 NSCLC cell line; conditions: dasatinib, cited from earlier work
[21] = system: HCC78 NSCLC cell line; conditions: dasatinib, cited from earlier work
[22] = system: HOP62 NSCLC cell line; experiment: Cellular growth inhibition (CellTiter Glo viability assay); assay type: cell-based; conditions: Homo sapiens, HOP-62, 96 h; read-out: GI50 this paper
[23] = system: BT-549 breast cancer cell line; conditions: dasatinib, cited from earlier work
[24] = system: H157 NSCLC cell line; conditions: dasatinib, cited from earlier work
[25] = Huang et al. 2007, read-out: GI50 literature
[26] = Sos et al. 2009, read-out: GI50 literature

In the case of `Cc1nc(Nc2ncc(C(=O)Nc3c(C)cccc3Cl)s2)cc(N2CCN(CCO)CC2)n1` [dasatinib, N-(2-chloro-6-methylphenyl)-2-[[6-[4-(2-hydroxyethyl)piperazin-1-yl]-2-methylpyrimidin-4-yl]amino]-1,3-thiazole-5-carboxamide], the GI50 [1, 25] is given as 0.07 µM, the Sensitivity class [1] is given as < 1000 nM and the GI50 [2] is given as 5.44 µM. The GI50 [3, 26] was 11.3 µM, the IC50 ([3]; read-out: Class) was > 1 µM and the GI50 [4, 26] was 0.838 µM. The IC50 ([4]; read-out: Class) was < 1 µM, the GI50 [5] was 3.27 µM and the GI50 [6, 26] was 0.175 µM. The Sensitivity class [6] was < 1000 nM, the GI50 [7, 26] was 11.3 µM and the IC50 ([7]; read-out: Class) was > 1 µM. The GI50 [8, 26] was 24.2 µM, the IC50 ([8]; read-out: Class) was > 1 µM and the GI50 [9, 26] was 0.113 µM. The IC50 ([9]; read-out: Class) was < 1 µM, the GI50 [10, 26] was 12.4 µM and the IC50 ([10]; read-out: Class) was > 1 µM. The GI50 [11] was 0.082 µM, the GI50 [12] was 0.52 µM and the GI50 [13, 26] was 13.9 µM. For the same compound, the IC50 ([13]; read-out: Class) was > 1 µM, the GI50 [14] was > 9.52 µM and the GI50 [15, 26] was 0.897 µM. For the same compound, the Sensitivity class [15] was < 1000 nM, the GI50 [16, 26] was 0.259 µM and the IC50 ([16]; read-out: Class) was < 1 µM. The GI50 [17, 26] was 0.118 µM, the Sensitivity class [17] was < 1000 nM and the GI50 [18, 26] was 12.8 µM. For the same compound, the IC50 ([18]; read-out: Class) was > 1 µM, the GI50 [19] was 0.497 µM and the GI50 [20, 26] was 0.747 µM. The Sensitivity class [20] was < 1000 nM, the GI50 [21, 26] was 13.9 µM and the IC50 ([21]; read-out: Class) was > 1 µM. For the same compound, the GI50 [22] was 0.014 µM, the GI50 [23, 25] was 9.06 µM and the IC50 ([23]; read-out: Class) was > 1 µM. For the same compound, the GI50 [24, 26] was 10.5 µM and the Sensitivity class [24] was > 1000 nM.
